Measurements: patent US20240299321A1, “METHODS TO SENSITIZE CANCER CELLS AND STANDARDIZED SCREENING ASSAY FOR IMMUNOTHERAPY” (THE TRUSTEES OF INDIANA UNIVERSITY, priority 2020, published 2024)

Assays:
[1] = Organ damage in treated mice; type: in vivo
[2] = test system: EO771 tumors; experiment: EO771 orthotopic breast tumor model in immunodeficient nude (NU/J) mice; type: in vivo; conditions: for tumor growth and weight: immune-deficient nude mice, 20 mg kg-1, vs control group; for size of gross dissected mammary EO771 tumors: nude mice, 20 mg kg−1, harvested day 18
Description: Animal studies: All animal experiments were performed in accordance with the National Institutes of Health's Animal Use Guidelines and protocols approved by the Animal Care and Use Committee of Indiana University School of Medicine. […] Each mouse was injected with a total of 2×10^5 tumor cells. 5 mice were used in each group. Tumors were measured in two dimensions using a manual caliper. Tumor volume was calculated using the following formula: V=0.5×length×width×width. Tumor volume was measured every 3 days. Tumors were harvested 22 days after injection. The tumor growth, volume and weight were analyzed. To evaluate the anti-tumor effect of drugs in immunocompetent C57BL/6 mice and immunodeficient nude (NU/J) mice, 2×10^5 EO771 cells were orthotopically injected into fat pad of the 4th mammary gland in female mice. […] For CD4/CD8 depletion experiment, the tumor-bearing mice were randomly divided into 7 groups (n=8 mice/group) including isotype control (rat IgG2a, Bioxcell), isotype control+CUDC-101, isotype control+BML-210, anti-CD8 (Clone: 53-6.72, Bioxcell)+CUDC-101, anti-CD8+BML-210, anti-CD4 (Clone: GK1.5, Bioxcell)+CUDC-101, or anti-CD4+BML-210. Intraperitoneal injection of inhibitors (20 mg kg-1) and anti-CD4/CD8 (10 mg kg-1) were administrated to the mice by 3 times/week for 2 weeks. The tumors were harvested at day 18 (NU/J mice) or day 28 (C57BL/6 mice) for further analyses. In immune checkpoint blockade experiment, 2×10^5 EO771 cells were orthotopically injected into fat pad of the 4th mammary gland in female C57BL/6 mice. From day 10, the tumor-bearing mice were randomly divided into each treatment group (n=8 mice/group), and the mice were treated with IgG2a isotype control antibody (clone 2A3, Bioxcell), BML-210 (20 mg kg-1), anti-PD-1 (200 μg/mouse, Bioxcell), or BML-210 and anti-PD-1 combo. The treatment was done 3 times/week for 2 weeks. Tumors were harvested at day 26 post injection and the tumors were analyzed by IHC staining, flow cytometry, ELISA or CyTOF assay.

[3] = test system: PDOs from breast cancer patients; experiment: Patient-derived organoids co-cultured with autologous CD8+ T cells; type: cell-based, human; conditions: for T cell cytotoxicity: PDO2 and PDO7
Description: Breast tumor organoid culture: Single cells isolated from EO771-derived tumors in tumor-bearing C57BL/6 mice were suspended into cold mouse breast cancer culture medium containing 10% Matrigel (Corning) with a concentration of 2×10^5 cells ml^−1. The cells (2 ml) were seeded into each well of pre-warmed 6-well microplate with ultra-low attachment surface (Corning) and cultured at 37° C. with 5% CO2. The same volume of fresh culture medium was added every other day. After 7-day culture, tumor organoids were collected using cell strainers with pore size of 70 and 150 μm. For human tumor organoid culture, 2 ml of NY-ESO-1+ MDA-MB-468 cells with a concentration of 2×10^5 cells ml-1 were seeded into each well of the prewarmed 6-well microplate with ultra-low attachment surface. The cells were cultured for two days to generate tumor spheroids. The resulting spheroids were mixed with cancer associated fibroblasts (CAFs) with a ratio of 2:1 (tumor cells versus CAFs) and cultured in the human breast cancer organoid culture medium3 for 5 days. Finally, the MDA-MB-468 tumor organoids with diameter of 70˜150 μm were used for co-culture with NY-ESO-1-specific human CD8+ T cells (ASTARTE Biologics). Patient-derived organoids (PDOs) were cultured following the same procedures as mouse EO771 tumor organoids using human breast cancer organoid culture medium.
Cytotoxicity of CD8+ T cells in the co-culture with tumor organoids We generated mouse EO771 (Luc+OVA+) cell line that presents OVA257-264 antigen (from chicken ovalbumin) and human MDA-MB-468 (NY-ESO-1+) cell line that presents NY-ESO-1 antigen for use in the T cell-mediated cytotoxicity assay. OVA-specific CD8+ T cells were isolated from the spleen of OT-I mouse that contains transgenic inserts of Tcra-V2 and Tcrb-V5 genes. The transgenic T cell receptor can recognize the ovalbumin peptide SIINFEKL (OVA257-264; SEQ ID NO: 55). Anti-NY-ESO-1 human CD8^+ T cells (CELLERO™) were used to recognize the NY-ESO-1+ MDA-MB-468 cells. Autologous human CD8+ T cells were isolated from patient tumor tissues and amplified in the DMEM/F12 medium supplemented with 10% FBS, 2 mM Ultraglutamine I, 1% penicillin/streptomycin and 10 ng mL-1 of human IL2 for 7 days. The CD8+ T cells were stimulated by the T-activator CD3/CD28 Dynabeads (Gibco, 11452D for mouse and 11131D for human) for 48 h prior to use for cytotoxicity assay. Mouse and human tumor organoids with diameter between 70 and 150 μm were collected and mixed with corresponding CD8+ T cells in DMEM/F12 medium supplemented with 10% FBS, 2 mM Ultraglutamine I, 1% penicillin/streptomycin and 10 ng mL-1 IL2 (Biolegend, mouse: 575402; human: 589102) at a ratio of organoids versus T cells at 1:200 in the microplates with ultra-low attachment surface. The cells were co-cultured for 24 h and subject to further analyses, such as optical and fluorescence imaging, luciferase assay or flow cytometry.
There is an unmet clinical need to predict responsiveness to new cancer immunotherapy. Both syngeneic mouse models and humanized patient-derived xenograft (PDX) models are time-consuming and not cost-efficient. Here, we wanted to apply the standardized tumor organoid model in this study to predict the therapeutic responses to BML-210, CUDC-101 and GSK-LSD1. In this setting, autologous CD8+ T cells were isolated from patient tumor tissues and amplified for a week. Patient-derived organoids (PDOs) were generated from 10 patients with breast cancer (Table 2). The PDOs from each patient were characterized and compared with their originating tumors using Hematoxylin and eosin (H&E) staining and immunofluorescence imaging analysis. EpCAM and SMA were used as biomarkers to identify tumor epithelial cells and cancer-associated fibroblast cells, respectively, which are the main components of a breast tumor tissue. […] We were able to isolate reasonable numbers (>1×10^5) of autologous T cells from 8 out of 10 breast tumor tissues. […]

[4] = test system: MDA-MB-468 cells; experiment: Gene expression in MDA-MB-468 cells (quantitative RT-PCR); type: cell-based, human; conditions: BML-210 1.0 μM, FIG. 4B
[5] = test system: mouse melanoma model; conditions: reported; cited from earlier work
[6] = PDO1, PDO3, PDO4, PDO5 and PDO8, 48 h pretreatment

SMILES	visible damages in the heart, kidney, spleen, liver and lung [1]	tumor growth and weight [2]	size of gross dissected mammary EO771 tumors [2]	T cell-mediated cytotoxicity [3, 6]	T cell cytotoxicity [3]	T cell-mediated cytotoxicity ([3]; PDO6)	expression of antigen processing and presentation DEGs (qPCR) [4]	CD8+ T cell infiltration and anti-tumor response [5]
Nc1ccccc1NC(=O)CCCCCCC(=O)Nc1ccccc1 [BML-210]	No visible damages	No significant differences	no significant difference in size	significantly higher T cell-mediated cytotoxicity	only moderate increases (statistically not significant)	higher T cell-mediated cytotoxicity	most of DEGs had higher expression levels	–
C#Cc1cccc(Nc2ncnc3cc(OC)c(OCCCCCCC(=O)NO)cc23)c1 [CUDC-101]	No visible damages	No significant differences	no significant difference in size	significantly higher T cell-mediated cytotoxicity	only moderate increases (statistically not significant)	modest effect	–	–
c1ccc([C@@H]2C[C@H]2NC2CCNCC2)cc1 [GSK-LSD1]	–	–	–	significantly higher T cell-mediated cytotoxicity	only moderate increases (statistically not significant)	higher T cell-mediated cytotoxicity	–	promote CD8+ T cell infiltration and anti-tumor response
